The record followed here is US10166249B2, “Substituted bicyclic compounds” (BRISTOL-MYERS SQUIBB COMPANY, priority 2014, dated 2019).

Experiment [1] addresses T1, S1P1 (Homo sapiens (Human), UniProt P21453). The experiment can be described thus: Receptor [35S] GTPγS binding assay (S1P1 GTPγS), membranes from S1P1/CHO cells. Format: biochemical. To be noted: for activity as an agonist of S1P1: result in words. On the procedure:
(§1) Receptor [^35S] GTPγS Binding Assays: (S1P1 GTPγS/S1P3 GTPγS)
(§2) Membranes prepared from S1P1/CHO cells or EDG3-Gal5-bla HEK293T cells (EDG3 equivalent S1P3) were added to the compound plate ([…], final protein 3 μg/well) with MULTIDROP®. [^35S]GTP (1250 Ci/mmol, Perkin Elmer) was diluted in assay buffer: 20 mM HEPES, pH7.5, 10 mM MgCl2, 150 mM NaCl, 1 mM EGTA (ethylene glycol tetraacetic acid), 1 mM DTT (Dithiothreitol), 10 μM GDP, 0.1% fatty acid free BSA, and 10 μg/ml Saponin to 0.4 nM. 40 μl of the [^35S] GTP solution was added to the compound plate with a final concentration of 0.2 nM. The reaction was kept at room temperature for 45 min. At the end of incubation, all the mixtures in the compound plate were transferred to Millipore 384-well FB filter plates via the VELOCITY11® Vprep liquid handler. The filter plate was washed with water 4 times by using the manifold Embla plate washer and dried at 60° C. for 45 min. MicroScint 20 scintillation fluid (30 μl) was added to each well for counting on the Packard TOPCOUNT®.
A larger value for the GTPγS S1P3 EC50 value indicated less activity in the GTPγS S1P3 binding assay.
(In general: GTPγS is a poorly hydrolysed GTP analogue; its binding reports G protein activation.)

The next experiment deals with S1P3 (EDG3) (Homo sapiens (Human), UniProt Q99500). As to the kind of experiment: Receptor [35S] GTPγS binding assay (S1P3 GTPγS), membranes from EDG3-Gal5-bla HEK293T cells. Format: biochemical. On the procedure: as §1
S1P3 (EDG3), sequence (Q99500 whole entry): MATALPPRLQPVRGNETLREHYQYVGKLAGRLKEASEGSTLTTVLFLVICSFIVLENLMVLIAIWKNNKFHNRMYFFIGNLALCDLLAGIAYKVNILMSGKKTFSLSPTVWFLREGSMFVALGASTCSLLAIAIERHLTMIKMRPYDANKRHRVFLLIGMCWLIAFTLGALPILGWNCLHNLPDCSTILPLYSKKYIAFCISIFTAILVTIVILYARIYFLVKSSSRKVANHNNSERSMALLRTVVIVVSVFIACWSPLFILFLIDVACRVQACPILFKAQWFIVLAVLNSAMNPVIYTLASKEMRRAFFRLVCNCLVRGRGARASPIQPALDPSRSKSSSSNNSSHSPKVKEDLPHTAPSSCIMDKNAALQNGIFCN
as §2, with “Compounds were loaded in a 384 Falcon v-bottom plate ([…] in a 11 point, 3-fold dilution). Membranes” for “Membranes”
A smaller value for GTPγS S1P1 EC50 value indicated greater activity for the compound in the GTPγS S1P1 binding assay. A larger value for the GTPγS S1P3 EC50 value indicated less activity in the GTPγS S1P3 binding assay. […]

Experiment [2] concerns the target T1, S1P1. The experiment can be described thus: S1P1 binding assay (33P-S1P radioligand competition, membranes from CHO cells). Here is the method:
Membranes were prepared from CHO cells expressing human S1P1. Cells pellets (1×10^9 cells/pellet) were suspended in buffer containing 20 mM HEPES (4-(2-hydroxyethyl)-1-piperazineethanesulfonic acid), pH 7.5, 50 mM NaCl, 2 mM EDTA (Ethylenediaminetetraacetic acid) and Protease Inhibitor cocktail (Roche), and disrupted on ice using the Polytron homogenizer. The homogenate was centrifuged at 20,000 rpm (48,000 g) and the supernatant was discarded. The membrane pellets were resuspended in buffer containing 50 mM HEPES, pH 7.5, 100 mM NaCl, 1 mM MgCl2, 2 mM EDTA and stored in aliquots at −80° C. after protein concentration determination.

Experiment [3] deals with rat adjuvant-induced arthritis model (hind paw volume). As to the kind of experiment: Rat Adjuvant Induced Arthritis Assay (AA). The conditions noted are these: Lewis rat, prophylactic oral dosing regimen. Format: in vivo, Lewis rats. Here is the method: Rat Adjuvant Induced Arthritis Assay (AA)
The rat adjuvant-induced arthritis model is an animal model for human rheumatoid arthritis.
Male Lewis rats (150-175 g; Harlan, n=8 treatment group) were immunized at the base of the tail with 100 μl of 10 mg/ml freshly ground Mycobacterium butyricum (Difco Laboratories) in incomplete Freund's adjuvant (sigma). Animals were dosed once daily with the test article (as a solution or suspension in the vehicle) or vehicle alone (polyethylene glycol 300, “PEG300”) starting from the day of immunization. The volumes of their hind paws were measured in a water displacement plethysmometer (Ugo Basile, Italy). The baseline paw measurements were taken before onset of the disease (between day 7 to day 10). The paw measurements were then taken three times a week until the end of the study on day 20 to 21. All procedures involving animals were reviewed and approved by the Institutional Animal Care Use Committee.

Experiment [4] concerns mouse EAE model (clinical score). The experiment can be described thus: Mouse Experimental Autoimmune Encephalomyelitis Assay (EAE). The format is in vivo. The conditions noted are these: C57Bl/6 mice, prophylactic oral dosing regimen. On the procedure: Mouse Experimental Autoimmune Encephalomyelitis Assay (EAE)
Mice (C57BL/6 female, 6-8 weeks of age, Charles River, n=10 treatment group) were immunized subcutaneously with 150 μg MOG35-55 emulsified 1:1 with incomplete Freund's adjuvant (sigma) supplemented with 150 μg Mycobacterium tuberculosis H37RA (Difco Laboratories). 400 ng of pertussis toxin (CalBiochem) was injected intraperitoneally on the day of immunization and 2 day later. Clinical scoring and body weight were taken 3 times per week. Clinical scoring system: 0.5: partial tail weakness; 1: limp tail or waddling gait with tail tonicity; 1.5: waddling gait with partial tail weakness; 2: waddling gait with limp tail (ataxia); 2.5: ataxia with partial limb paralysis; 3: full paralysis of one limb; 3.5: full paralysis of one limbs with partial paralysis of a second limb; 4: full paralysis of two limbs; 4.5: moribund; 5: death. Mean clinical score was calculated by averaging the scores of all mice in each group. All procedures involving animals were reviewed and approved by the Institutional Animal Care Use Committee.

The subject of experiment [5] is rat EAE model (clinical score). The experiment can be described thus: Rat Experimental Autoimmune Encephalomyelitis (EAE). The format is in vivo, Lewis rats. To be noted: Lewis rat; for Clinical Score on Day 11 (Mean): rat EAE, prophylactic oral dosing. On the procedure: Rat Experimental Autoimmune Encephalomyelitis (EAE):
Female Lewis rats (150-200 g; Harlan) were immunized at the base of the tail with 0.1 ml of a complete Freund's adjuvant emulsion containing 0.5 mg/mL guinea pig myelin basic protein (Genemed Synthesis) and 2 mg/mL Mycobacterium butyricum (Difco). Beginning on Day 7, rats (n=11/group) were scored individually at least 3×/wk according to the following scheme:
Average clinical scores were calculated for each treatment group on each day of assessment.

For experiment [6], the system named is MRL/lpr spontaneous lupus model. As to the kind of experiment: MRL/lpr Lupus Model (anti-dsDNA antibody titers, kidney histology). The format is in vivo. To be noted: MRL/lpr mice, p.o. daily, 0.06, 0.3, 1.5 mg/kg. The source says: MRL/lpr Lupus Model: MRL/lpr is a spontaneous model of lupus. Male MRL/lpr mice (Jackson Laboratory) at the age of 12-14 weeks were enrolled for the study (N=12). […] Mice were bled every other week for anti-dsDNA antibodies measured by ELISA using pooled serum from diseased MRL/lpr mice as a positive comparator in each assay. The data were expressed in arbitrary units as a ratio of the titer of the test serum to the titer of the pooled MRL/lpr immune serum. At the end of study, one kidney was collected into 10% neutral buffered formalin and ZincTris fixatives. Fixed tissues were processed into paraffin blocks, sectioned at 3 μm, and stained with H&E or PASH. Kidney sections were graded using following criteria: Glomerular Damage: 1. Mesangial matrix thickening, cell proliferation, 2. Crescent formation, cellular deposits/casts in Bowman's space, 3. Cellular infiltration, mononuclear cells in glomerular tufts, 4. Fibrosis of Bowman's capsule. Tubular damage: 1. Infiltration of mononuclear cells, 2. Severity of tubular damage, 3. Protein casts. Tubulo-interstitial damage: 1. Fibrosis, 2. Infiltration of mononuclear cells. Each subcategory was assigned a score from 0-4, with the scores for glomerular indices representing the mean from 20 glomeruli per kidney. The total score for each mouse was the sum of the above 9 subcategories, with the highest possible score=36.

For the next experiment, the target named is hS1P1 (Homo sapiens (Human), UniProt P21453). The experiment can be described thus: hS1P1 ERK phosphorylation (S1P1 pERK) in hS1P1/CHO cells. The format is cell-based. The conditions noted are these: phosphate examples. On the procedure:
hS1P1 ERK Phosphorylation (S1P1 pERK)
hS1P1/CHO cells were plated into BD Amine 384-well plates the day before the assay. On the day of the assay, growth medium was removed and replaced with serum-free medium (Ham's F-12 Invitrogen) and incubated for 2 hours. Test compounds pre-diluted in HBSS (Gibco)/20 mM HEPES (Gibco) were transferred to the cell plates and incubated for 7 minutes at 37° C. Cells were lysed in lysis buffer (Perkin Elmer) and phospho-ERK was measured using the SureFire pERK kit (Perkin Elmer) as described by the manufacturer. Data was plotted as percentage activation of the test compound relative to the efficacy of 10 μM S1P.

Setting [7] is: membranes from S1P1/CHO cells, read-out: GTPγS S1P1 EC50.
[8] abbreviates: 33P-S1P competition, membranes from CHO cells expressing human S1P1, read-out: S1P1 Binding IC50.

Entries after “also recorded” stand apart in the source; their conditions may differ. Like-named read-outs stand apart in the source and are kept apart here.

T1 sequence (P21453 whole entry): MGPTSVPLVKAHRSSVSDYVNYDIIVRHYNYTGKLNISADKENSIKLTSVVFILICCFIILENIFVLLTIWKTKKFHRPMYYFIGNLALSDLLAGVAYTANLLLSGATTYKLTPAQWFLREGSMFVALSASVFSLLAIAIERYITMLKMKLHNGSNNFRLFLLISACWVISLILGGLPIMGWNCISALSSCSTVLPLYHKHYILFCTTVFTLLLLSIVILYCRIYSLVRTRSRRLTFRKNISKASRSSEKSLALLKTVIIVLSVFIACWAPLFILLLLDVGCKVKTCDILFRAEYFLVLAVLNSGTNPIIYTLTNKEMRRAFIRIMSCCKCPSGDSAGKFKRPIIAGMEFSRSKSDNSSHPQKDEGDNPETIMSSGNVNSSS
hS1P1, sequence (P21453 whole entry): as above

As to `COCCCCCC1CCc2cc([C@H]3CC[C@](N)(COP(=O)(O)O)C3)ccc2C1` (single isomer, unassigned) [Example 689], the “activity as an agonist of S1P1” value at S1P1 [1] is given as “possessed activity as an agonist of S1P1”. Moreover, the “selectivity over S1P3” value on S1P3 (EDG3) (result in words, S1P1 versus S1P3 GTPγS) is on record as “selective over S1P3”.
Regarding `COCCCCCC1CCc2cc([C@@H]3CC[C@](N)(COP(=O)(O)O)C3)ccc2C1` (single isomer, unassigned) [Example 692], the EC50 on S1P1 [1] (setting [7]) came to 4.4 nM.
Turning to `COc1cccc(CCC2CCc3cc([C@H]4CC[C@](N)(COP(=O)(O)O)C4)ccc3C2)c1` (single isomer, unassigned) [Example 693], the EC50 at S1P1 [1] (setting [7]) is 19.2 nM. Further, the IC50 on S1P1 [2] (setting [8]) came out at 5.2 nM.
As to `CCOCCCC1CCc2cc([C@H]3CC[C@](N)(COP(=O)(O)O)C3)ccc2C1` (single isomer, unassigned) [Example 695], the EC50 at S1P1 [1] (setting [7]) is 49 nM. Also, the IC50 on S1P1 [2] (setting [8]) is 119 nM.
Consider `COc1ccccc1CCC1CCc2cc([C@H]3CC[C@](N)(COP(=O)(O)O)C3)ccc2C1` (single isomer, unassigned) [Example 697], for which the “activity as an agonist of S1P1” value at S1P1 [1] is reported as “possessed activity as an agonist of S1P1”.
With `COCCCCC[C@H]1CCc2cc([C@H]3CC[C@](N)(CO)C3)ccc2C1` [Example 672, ((1R,3S)-1-amino-3-((S)-6-(5-methoxypentyl)-5,6,7,8-tetrahydronaphthalen-2-yl)cyclopentyl)methanol], the “inhibition of disease progression as measured by reduced paw swelling” value in experiment [3] is “showed inhibition of disease progression”.
Consider `CCOCCC[C@@H]1CCc2cc([C@H]3CC[C@](N)(CO)C3)ccc2C1` [Example 679, ((1R,3S)-1-amino-3-((S)-6-(3-ethoxypropyl)-5,6,7,8-tetrahydronaphthalen-2-yl)cyclopentyl)methanol], for which the “inhibition of disease progression as measured by reduced paw swelling” value in experiment [3] is “showed inhibition of disease progression”. Moreover, the “inhibition of disease progression as measured by clinical scores” value in experiment [4] was “showed inhibition of disease progression; also recorded: inhibit disease progression”. In addition, the “inhibition of disease progression as measured by reduced clinical scores” value in experiment [5] (prophylactic oral dosing regimen) was “showed inhibition of disease progression”. The results for the “Clinical Score on Day 11 (Mean)” value in experiment [5] (0.3 mg/kg), in experiment [5] (1.0 mg/kg) and in experiment [5] (3.0 mg/kg) were 0.36, 0.09 and 0.02, respectively.
As for `COc1ccccc1CC[C@@H]1CCc2cc([C@H]3CC[C@](N)(CO)C3)ccc2C1` [Example 681, ((1R,3S)-1-amino-3-((S)-6-(2-methoxyphenethyl)-5,6,7,8-tetrahydronaphthalen-2-yl)cyclopentyl)methanol], in experiment [4], the “inhibition of disease progression as measured by clinical scores” value is “showed inhibition of disease progression; also recorded: inhibit disease progression”. Also, the “inhibition of disease progression as measured by anti-dsDNA titers and kidney histology” value in experiment [6] is “showed inhibition of disease progression”.
Take `CCC/C=C/CO[C@@H]1CCc2cc([C@H]3CC[C@](N)(COP(=O)(O)O)C3)ccc2C1` [compound 439]: the EC50 on hS1P1 was less than 10 nM; on S1P1 [1] (phosphate examples, read-out: S1P1 GTPγS), 10 to 100 nM; at S1P3 (EDG3) (phosphate examples), more than 625 nM. Also, the IC50 at S1P1 [2] (phosphate examples, read-out: S1P1 Binding) was less than 10 nM.
